Columns and labels:
cIAP1-BIR3 = cIAP1-BIR3 (Homo sapiens (Human), UniProt Q13490); experiment: BIR binding assay (FRET competition), cIAP1 BIR3; settings: for cIAP1 BIR3 vs BIR2 separation window: fold separation (FS) for cIAP1
In short: (§1)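 Compounds tested as 15-point, 3-fold series displacing 200 nM AlexaFluor647-labelled SMAC peptide from His-tagged BIR domain (cIAP1-BIR3 50 nM; cIAP1-BIR2 and cIAP2-BIR2 325 nM; XIAP-BIR3 100 nM), pH 7.4, 60 min. Eu-W1024 (2 nM) added 30 min; emission ratio fitted for IC50.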

cIAP2-BIR3 = cIAP2-BIR3 (Homo sapiens (Human), UniProt Q13489); experiment: BIR binding assay (FRET competition), cIAP2 BIR3; settings: for cIAP2 BIR3 vs BIR2 separation window: fold separation (FS) for cIAP2
cIAP1-BIR2 = cIAP1-BIR2 (Homo sapiens (Human), UniProt Q13490); experiment: BIR binding assay (FRET competition), cIAP1 BIR2
In short: as §1

[1] = tested on: Jurkat HIV-luciferase clones; experiment: Jurkat latency reversal assay; type: cell-based; settings: Homo sapiens, 48 h; Jurkat latency reversal assay potency; read-out: Jurkat pEC50 (converted)
In short: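 Compounds are titrated 3-fold over 14 points from 10 μM in duplicate at 0.5% DMSO. Clones C16, 115 and N6, grown with 500 nM EFV, are co-incubated for 48 h at 37° C. Virally driven luciferase is read by luminescence, and EC50 and maximal percent activation versus vehicle come from a four-parameter model.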

XIAP-BIR2 = XIAP-BIR2 (Homo sapiens (Human), UniProt P98170); experiment: BIR binding assay (FRET competition), XIAP BIR2; settings: FRET competition; read-out: XIAP BIR2 (pIC50) (converted)
In short: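 Competitive TR-FRET used His-tagged XIAP-BIR2 (200 nM) and 200 nM AlexaFluor647-labelled AVPIAQKSE SMAC peptide in HEPES buffer pH 7.4 with CHAPS, glycerol and DTT, incubated 60 min before 30 min with 2 nM Eu-W1024. The 615/665 nm ratio from a 15-point, 3-fold series was fit with a four-parameter model for IC50/pIC50.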

XIAP-BIR3 = XIAP-BIR3 (Homo sapiens (Human), UniProt P98170); experiment: BIR binding assay (FRET competition), XIAP BIR3; settings: for XIAP BIR3 vs BIR2 separation window: fold separation (FS) for XIAP
In short: as §1

cIAP2-BIR2 = cIAP2-BIR2 (Homo sapiens (Human), UniProt Q13489); experiment: BIR binding assay (FRET competition), cIAP2 BIR2
In short: as §1

Chain of XIAP-BIR2 (P98170 124-240): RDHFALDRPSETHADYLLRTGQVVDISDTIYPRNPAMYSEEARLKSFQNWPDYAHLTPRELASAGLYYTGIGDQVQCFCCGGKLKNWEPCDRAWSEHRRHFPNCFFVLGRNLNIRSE
Chain of cIAP1-BIR3 (Q13490 253-363): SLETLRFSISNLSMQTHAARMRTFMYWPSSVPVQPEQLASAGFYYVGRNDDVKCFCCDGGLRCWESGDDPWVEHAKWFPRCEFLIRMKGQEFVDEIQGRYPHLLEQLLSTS
Chain of XIAP-BIR3 (P98170 241-356): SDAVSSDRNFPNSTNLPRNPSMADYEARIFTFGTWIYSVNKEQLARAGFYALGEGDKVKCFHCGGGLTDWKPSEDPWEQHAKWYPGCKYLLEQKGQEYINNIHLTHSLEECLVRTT
Chain of cIAP1-BIR2 (Q13490 173-257): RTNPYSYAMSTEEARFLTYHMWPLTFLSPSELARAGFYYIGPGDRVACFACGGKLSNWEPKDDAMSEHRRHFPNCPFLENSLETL
Chain of cIAP2-BIR2 (Q13489 158-242): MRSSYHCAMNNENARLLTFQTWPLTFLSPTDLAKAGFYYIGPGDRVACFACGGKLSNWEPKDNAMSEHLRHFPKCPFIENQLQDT
Chain of cIAP2-BIR3 (Q13489 238-349): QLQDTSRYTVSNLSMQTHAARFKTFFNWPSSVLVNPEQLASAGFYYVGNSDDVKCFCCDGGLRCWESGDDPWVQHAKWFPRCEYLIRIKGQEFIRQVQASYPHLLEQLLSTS

## C[C@@H]1CN(CC(=O)N2CC(C)(C)c3[nH]c(=O)c(Cc4ccc(Cl)cc4C(=O)N(C)C)cc32)[C@@H](CN2CCO[C@H](C(=O)NCc3ccc(CNC(=O)[C@@H]4CN(C[C@H]5CN[C@H](C)CN5CC(=O)N5CC(C)(C)c6[nH]c(=O)c(Cc7ccc(Cl)cc7C(=O)N(C)C)cc65)CCO4)cc3)C2)CN1 [Compound 172, (2S,2′S)-N,N′-(1,4-phenylenebis(methylene)) bis(4-(((2R,5R)-1-(2-(6-(4-chloro-2-(dimethylcarbamoyl)benzyl)-3,3-dimethyl-5-oxo-2,3,4,5-tetrahydro-1H-pyrrolo[3,2-b]pyridin-1-yl)-2-oxoethyl)-5-methylpiperazin-2-yl)methyl)morpholine-2-carboxamide)]
cIAP1-BIR3
  IC50: 7.94 to 15.8 nM
  cIAP1 BIR3 vs BIR2 separation window: +++ (10,000>FS>1,000)
cIAP2-BIR3
  IC50: 7.94 to 15.8 nM
  cIAP2 BIR3 vs BIR2 separation window: ++++ (FS>10,000)
cIAP1-BIR2
  IC50: 10000 to 51300 nM
[1]
  EC50: 316 to 3310 nM
XIAP-BIR2
  IC50: 10000 to 51300 nM
XIAP-BIR3
  IC50: 31.6 to 501 nM
  XIAP BIR3 vs BIR2 separation window: ++++ (FS>10,000)
cIAP2-BIR2
  IC50: 10000 to 51300 nM

## C[C@@H]1CN(CC(=O)N2CC(C)(C)c3[nH]c(=O)c(Cc4cc(F)c(F)cc4F)cc32)[C@@H](CN2CCO[C@H](C(=O)NCc3ccc(CNC(=O)[C@@H]4CN(C[C@H]5CN[C@H](C)CN5CC(=O)N5CC(C)(C)c6[nH]c(=O)c(Cc7cc(F)c(F)cc7F)cc65)CCO4)cc3)C2)CN1 [Compound 175, (2S,2′S)-N,N′-(1,4-phenylenebis(methylene)) bis(4-(((2R,5R)-1-(2-(3,3-dimethyl-5-oxo-6-(2,4,5-trifluorobenzyl)-2,3,4,5-tetrahydro-1H-pyrrolo[3,2-b]pyridin-1-yl)-2-oxoethyl)-5-methylpiperazin-2-yl)methyl)morpholine-2-carboxamide)]
cIAP1-BIR3
  IC50: 15.8 to 31.6 nM
  cIAP1 BIR3 vs BIR2 separation window: +++ (10,000>FS>1,000)
cIAP2-BIR3
  IC50: 7.94 to 15.8 nM
  cIAP2 BIR3 vs BIR2 separation window: +++ (10,000>FS>1,000)
cIAP1-BIR2
  IC50: 1000 to 3160 nM
[1]
  EC50: 0.49 to 12.6 nM
XIAP-BIR2
  IC50: 10000 to 51300 nM
XIAP-BIR3
  IC50: 15.8 to 31.6 nM
  XIAP BIR3 vs BIR2 separation window: ++++ (FS>10,000)
cIAP2-BIR2
  IC50: 3160 to 10000 nM

## C[C@@H]1CN(CC(=O)N2CC(C)(C)c3[nH]c(=O)c(Cc4ccc(F)cc4F)cc32)[C@@H](CN2CCO[C@H](C(=O)NCc3ccc(CNC(=O)[C@@H]4CN(C[C@H]5CN[C@H](C)CN5CC(=O)N5CC(C)(C)c6[nH]c(=O)c(Cc7ccc(F)cc7F)cc65)CCO4)cc3)C2)CN1 [Compound 177, (2S,2′S)-N,N′-(1,4-phenylenebis(methylene)) bis(4-(((2R,5R)-1-(2-(6-(2,4-difluorobenzyl)-3,3-dimethyl-5-oxo-2,3,4,5-tetrahydro-1H-pyrrolo[3,2-b]pyridin-1-yl)-2-oxoethyl)-5-methylpiperazin-2-yl)methyl)morpholine-2-carboxamide)]
cIAP1-BIR3
  IC50: 15.8 to 31.6 nM
  cIAP1 BIR3 vs BIR2 separation window: +++ (10,000>FS>1,000)
cIAP2-BIR3
  IC50: 7.94 to 15.8 nM
  cIAP2 BIR3 vs BIR2 separation window: +++ (10,000>FS>1,000)
cIAP1-BIR2
  IC50: 1000 to 3160 nM
[1]
  EC50: 0.49 to 12.6 nM
XIAP-BIR2
  IC50: 10000 to 51300 nM
XIAP-BIR3
  IC50: 31.6 to 501 nM
  XIAP BIR3 vs BIR2 separation window: ++++ (FS>10,000)
cIAP2-BIR2
  IC50: 1000 to 3160 nM

## C[C@@H]1CN(CC(=O)N2CC(C)(C)c3[nH]c(=O)c(Cc4ccc(F)cc4C#N)cc32)[C@@H](CN2CCO[C@H](C(=O)NCc3ccc(CNC(=O)[C@@H]4CN(C[C@H]5CN[C@H](C)CN5CC(=O)N5CC(C)(C)c6[nH]c(=O)c(Cc7ccc(F)cc7C#N)cc65)CCO4)cc3)C2)CN1 [Compound 179, (2S,2′S)-N,N′-(1,4-phenylenebis(methylene)) bis(4-(((2R,5R)-1-(2-(6-(2-cyano-4-fluorobenzyl)-3,3-dimethyl-5-oxo-2,3,4,5-tetrahydro-1H-pyrrolo[3,2-b]pyridin-1-yl)-2-oxoethyl)-5-methylpiperazin-2-yl)methyl)morpholine-2-carboxamide)]
cIAP1-BIR3
  IC50: 15.8 to 31.6 nM
  cIAP1 BIR3 vs BIR2 separation window: ++ (1,000>FS>100)
cIAP2-BIR3
  IC50: 15.8 to 31.6 nM
  cIAP2 BIR3 vs BIR2 separation window: +++ (10,000>FS>1,000)
cIAP1-BIR2
  IC50: 1000 to 3160 nM
[1]
  EC50: 12.6 to 63.1 nM
XIAP-BIR2
  IC50: 10000 to 51300 nM
XIAP-BIR3
  IC50: 31.6 to 501 nM
  XIAP BIR3 vs BIR2 separation window: +++ (10,000>FS>1,000)
cIAP2-BIR2
  IC50: 1000 to 3160 nM

## C[C@@H]1CN(CC(=O)N2CC(C)(C)c3[nH]c(=O)c(Oc4ccc(F)cc4)cc32)[C@@H](CN2CCO[C@H](C(=O)NCc3ccc(CNC(=O)[C@@H]4CN(C[C@H]5CN[C@H](C)CN5CC(=O)N5CC(C)(C)c6[nH]c(=O)c(Oc7ccc(F)cc7)cc65)CCO4)cc3)C2)CN1 [Compound 181, (2S,2′S)-N,N′-(1,4-phenylenebis(methylene)) bis(4-(((2R,5R)-1-(2-(6-(4-fluorophenoxy)-3,3-dimethyl-5-oxo-2,3,4,5-tetrahydro-1H-pyrrolo[3,2-b]pyridin-1-yl)-2-oxoethyl)-5-methylpiperazin-2-yl)methyl)morpholine-2-carboxamide)]
cIAP1-BIR3
  IC50: 1.38 to 7.94 nM
  cIAP1 BIR3 vs BIR2 separation window: ++++ (FS>10,000)
cIAP2-BIR3
  IC50: 1.38 to 7.94 nM
  cIAP2 BIR3 vs BIR2 separation window: ++++ (FS>10,000)
cIAP1-BIR2
  IC50: 3160 to 10000 nM
[1]
  EC50: 63.1 to 316 nM
XIAP-BIR2
  IC50: 10000 to 51300 nM
XIAP-BIR3
  IC50: 1.38 to 7.94 nM
  XIAP BIR3 vs BIR2 separation window: ++++ (FS>10,000)
cIAP2-BIR2
  IC50: 3160 to 10000 nM

## C[C@@H]1CN(CC(=O)N2CC(C)(C)c3[nH]c(=O)c(Oc4ccc(Br)cc4)cc32)[C@@H](CN2CCO[C@H](C(=O)NCc3ccc(CNC(=O)[C@@H]4CN(C[C@H]5CN[C@H](C)CN5CC(=O)N5CC(C)(C)c6[nH]c(=O)c(Oc7ccc(Br)cc7)cc65)CCO4)cc3)C2)CN1 [Compound 183, (2S,2′S)-N,N′-(1,4-phenylenebis(methylene)) bis(4-(((2R,5R)-1-(2-(6-(4-bromophenoxy)-3,3-dimethyl-5-oxo-2,3,4,5-tetrahydro-1H-pyrrolo[3,2-b]pyridin-1-yl)-2-oxoethyl)-5-methylpiperazin-2-yl)methyl)morpholine-2-carboxamide)]
cIAP1-BIR3
  IC50: 1.38 to 7.94 nM
  cIAP1 BIR3 vs BIR2 separation window: +++ (10,000>FS>1,000)
cIAP2-BIR3
  IC50: 1.38 to 7.94 nM
  cIAP2 BIR3 vs BIR2 separation window: +++ (10,000>FS>1,000)
cIAP1-BIR2
  IC50: 1000 to 3160 nM
[1]
  EC50: 63.1 to 316 nM
XIAP-BIR2
  IC50: 10000 to 51300 nM
XIAP-BIR3
  IC50: 31.6 to 501 nM
  XIAP BIR3 vs BIR2 separation window: +++ (10,000>FS>1,000)
cIAP2-BIR2
  IC50: 1000 to 3160 nM

## Cc1ccc(Oc2cc3c([nH]c2=O)C(C)(C)CN3C(=O)CN2C[C@@H](C)NC[C@@H]2CN2CCO[C@H](C(=O)NCc3ccc(CNC(=O)[C@@H]4CN(C[C@H]5CN[C@H](C)CN5CC(=O)N5CC(C)(C)c6[nH]c(=O)c(Oc7ccc(C)cc7)cc65)CCO4)cc3)C2)cc1 [Compound 184, (2S,2′S)-N,N′-(1,4-phenylenebis(methylene)) bis(4-(((2R,5R)-1-(2-(3,3-dimethyl-5-oxo-6-(p-tolyloxy)-2,3,4,5-tetrahydro-1H-pyrrolo[3,2-b]pyridin-1-yl)-2-oxoethyl)-5-methylpiperazin-2-yl)methyl)morpholine-2-carboxamide)]
cIAP1-BIR3
  IC50: 7.94 to 15.8 nM
  cIAP1 BIR3 vs BIR2 separation window: +++ (10,000>FS>1,000)
cIAP2-BIR3
  IC50: 1.38 to 7.94 nM
  cIAP2 BIR3 vs BIR2 separation window: ++++ (FS>10,000)
cIAP1-BIR2
  IC50: 3160 to 10000 nM
[1]
  EC50: 316 to 3310 nM
XIAP-BIR2
  IC50: 10000 to 51300 nM
XIAP-BIR3
  IC50: 31.6 to 501 nM
  XIAP BIR3 vs BIR2 separation window: +++ (10,000>FS>1,000)
cIAP2-BIR2
  IC50: 3160 to 10000 nM
